Measured values: article doi:10.1101/2024.08.19.608619, “Discovery of potent SARS-CoV-2 nsp3 macrodomain inhibitors uncovers lack of translation to cellular antiviral response” (bioRxiv, 2024)
Where “and” joins values, the source holds several entries; their conditions need not be identical. Equal entries are not always repeated.

What was measured:
[1] = In vitro mouse hepatocyte stability; assay type: in vitro ADME
From the text: Supplement media-1.zip/Hepatocyte_Stability.csv, table | column: clint; t_half

5-HT transporter (h) = target: T1, 5-HT transporter (h) (Homo sapiens, UniProt P31645); assay: In vitro CEREP profiling, 5-HT transporter (h) (antagonist radioligand); details: test compound concentration 10 uM
T1 construct: purchased Eurofins Cerep (SafetyScreen44), recognised from the panel format
From the text: (§1) Supplement media-1.zip/Safety_Panel_Profile.csv, table | column: perc_inhibition

5-HT2A (h) = target: T2, 5-HT2A (h) (Homo sapiens, UniProt P28223); assay: In vitro CEREP profiling, 5-HT2A (h) (agonist radioligand); assay type: binding; details: test compound concentration 10 uM
T2 construct: purchased Eurofins Cerep (SafetyScreen44), recognised from the panel format
T2 sequence (P28223 whole entry): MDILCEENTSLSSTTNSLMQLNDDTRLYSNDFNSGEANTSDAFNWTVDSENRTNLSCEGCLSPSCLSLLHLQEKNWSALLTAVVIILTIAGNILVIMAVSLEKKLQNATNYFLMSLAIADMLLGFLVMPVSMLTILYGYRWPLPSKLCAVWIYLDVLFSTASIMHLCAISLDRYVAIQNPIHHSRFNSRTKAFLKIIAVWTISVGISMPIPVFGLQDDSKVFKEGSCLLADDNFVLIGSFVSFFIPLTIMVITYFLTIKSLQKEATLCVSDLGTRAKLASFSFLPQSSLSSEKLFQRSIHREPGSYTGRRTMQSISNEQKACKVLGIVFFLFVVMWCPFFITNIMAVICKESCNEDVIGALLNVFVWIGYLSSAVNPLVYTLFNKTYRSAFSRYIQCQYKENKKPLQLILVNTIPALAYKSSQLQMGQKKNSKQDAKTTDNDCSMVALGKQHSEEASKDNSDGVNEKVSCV
From the text: as §1

COX1(h) = target: T3, COX1(h) (Homo sapiens, UniProt P23219); assay: In vitro CEREP profiling, COX1(h); assay type: biochemical; details: test compound concentration 10 uM; Enzyme and Cell-based assays
T3 construct: purchased Eurofins Cerep (SafetyScreen44), recognised from the panel format
T3 sequence (P23219 24-599): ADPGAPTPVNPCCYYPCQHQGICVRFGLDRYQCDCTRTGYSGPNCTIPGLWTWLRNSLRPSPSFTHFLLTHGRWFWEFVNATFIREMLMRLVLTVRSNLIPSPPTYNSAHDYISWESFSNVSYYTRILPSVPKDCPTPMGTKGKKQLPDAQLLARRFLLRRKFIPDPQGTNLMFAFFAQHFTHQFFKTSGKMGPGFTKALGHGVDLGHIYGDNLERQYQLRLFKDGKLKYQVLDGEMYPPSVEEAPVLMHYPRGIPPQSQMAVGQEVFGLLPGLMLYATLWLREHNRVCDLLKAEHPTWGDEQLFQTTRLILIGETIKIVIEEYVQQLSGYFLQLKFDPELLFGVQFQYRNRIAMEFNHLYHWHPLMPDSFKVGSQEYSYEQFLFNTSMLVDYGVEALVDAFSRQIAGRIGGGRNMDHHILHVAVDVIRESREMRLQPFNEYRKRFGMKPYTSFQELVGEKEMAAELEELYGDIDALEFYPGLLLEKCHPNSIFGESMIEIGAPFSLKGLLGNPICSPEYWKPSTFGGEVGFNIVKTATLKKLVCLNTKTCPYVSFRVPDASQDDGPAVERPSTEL
From the text: as §1

H2 (h) = target: T4, H2 (h) (Homo sapiens, UniProt P25021); assay: In vitro CEREP profiling, H2 (h) (antagonist radioligand); assay type: binding; details: test compound concentration 10 uM
T4 construct: purchased Eurofins Cerep (SafetyScreen44), recognised from the panel format
T4 sequence (P25021 whole entry): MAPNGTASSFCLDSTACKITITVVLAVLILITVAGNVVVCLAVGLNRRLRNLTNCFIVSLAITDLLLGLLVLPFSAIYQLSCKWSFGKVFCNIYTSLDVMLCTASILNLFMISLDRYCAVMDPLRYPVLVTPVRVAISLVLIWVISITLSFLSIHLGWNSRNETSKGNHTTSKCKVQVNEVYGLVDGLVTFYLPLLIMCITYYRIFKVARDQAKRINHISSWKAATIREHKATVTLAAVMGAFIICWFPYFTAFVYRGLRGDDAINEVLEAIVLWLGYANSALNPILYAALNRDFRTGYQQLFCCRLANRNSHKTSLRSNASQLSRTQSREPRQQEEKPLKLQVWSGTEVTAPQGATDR
From the text: as §1

5-HT2B (h) = target: T5, 5-HT2B (h) (Homo sapiens, UniProt P41595); assay: In vitro CEREP profiling, 5-HT2B (h) (agonist radioligand); assay type: binding; details: test compound concentration 10 uM
T5 construct: purchased Eurofins Cerep (SafetyScreen44), recognised from the panel format
T5 sequence (P41595 whole entry): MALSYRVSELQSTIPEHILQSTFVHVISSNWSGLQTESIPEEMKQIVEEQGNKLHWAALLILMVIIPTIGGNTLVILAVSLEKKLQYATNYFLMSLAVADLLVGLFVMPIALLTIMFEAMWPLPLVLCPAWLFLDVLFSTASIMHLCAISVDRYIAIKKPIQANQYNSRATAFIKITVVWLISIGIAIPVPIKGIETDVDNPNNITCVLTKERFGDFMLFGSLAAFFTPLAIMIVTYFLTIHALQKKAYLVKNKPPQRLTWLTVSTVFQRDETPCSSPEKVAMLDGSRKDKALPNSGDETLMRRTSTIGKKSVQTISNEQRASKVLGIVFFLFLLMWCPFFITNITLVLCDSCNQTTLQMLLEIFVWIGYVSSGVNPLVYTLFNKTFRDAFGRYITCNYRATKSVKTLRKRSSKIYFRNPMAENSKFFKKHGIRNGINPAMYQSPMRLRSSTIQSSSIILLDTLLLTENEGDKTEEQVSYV
From the text: as §1

Vero E6/TMPRSS2 = Vero E6/TMPRSS2 cytotoxicity with P-gp inhibitor; assay type: cell-based; details: for perc_max_measured: highest measured response of the dose series; for perc_min_measured: lowest measured response of the dose series
From the text: Supplement media-1.zip/Cytotoxicity.csv, table | column: cc10; cc50; perc_min_measured; perc_max_measured

MAO-A = target: T6, MAO-A (Rattus norvegicus, UniProt P21396); assay: In vitro CEREP profiling, MAO-A (antagonist radioligand); assay type: binding; details: test compound concentration 10 uM
T6 construct: purchased Eurofins Cerep (SafetyScreen44), recognised from the panel format
T6 sequence (P21396 1-526): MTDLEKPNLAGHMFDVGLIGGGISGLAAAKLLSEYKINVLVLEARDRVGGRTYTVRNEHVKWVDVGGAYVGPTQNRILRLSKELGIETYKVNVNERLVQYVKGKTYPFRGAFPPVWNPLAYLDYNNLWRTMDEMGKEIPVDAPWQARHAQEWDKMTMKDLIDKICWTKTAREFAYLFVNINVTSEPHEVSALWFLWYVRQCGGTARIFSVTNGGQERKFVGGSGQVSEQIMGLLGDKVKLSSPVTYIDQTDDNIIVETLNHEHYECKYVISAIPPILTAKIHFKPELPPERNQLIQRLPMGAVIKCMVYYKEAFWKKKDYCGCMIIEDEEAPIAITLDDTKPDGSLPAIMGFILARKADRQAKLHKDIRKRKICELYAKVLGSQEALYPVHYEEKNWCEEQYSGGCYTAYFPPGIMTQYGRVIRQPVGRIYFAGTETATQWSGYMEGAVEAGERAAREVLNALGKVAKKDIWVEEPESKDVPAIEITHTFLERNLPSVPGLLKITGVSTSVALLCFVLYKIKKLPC
From the text: as §1

GR (h) = target: T7, GR (h) (Homo sapiens, UniProt P04150); assay: In vitro CEREP profiling, GR (h) (agonist radioligand); assay type: binding; details: test compound concentration 10 uM
T7 construct: purchased Eurofins Cerep (SafetyScreen44), recognised from the panel format
T7 sequence (P04150 1-777): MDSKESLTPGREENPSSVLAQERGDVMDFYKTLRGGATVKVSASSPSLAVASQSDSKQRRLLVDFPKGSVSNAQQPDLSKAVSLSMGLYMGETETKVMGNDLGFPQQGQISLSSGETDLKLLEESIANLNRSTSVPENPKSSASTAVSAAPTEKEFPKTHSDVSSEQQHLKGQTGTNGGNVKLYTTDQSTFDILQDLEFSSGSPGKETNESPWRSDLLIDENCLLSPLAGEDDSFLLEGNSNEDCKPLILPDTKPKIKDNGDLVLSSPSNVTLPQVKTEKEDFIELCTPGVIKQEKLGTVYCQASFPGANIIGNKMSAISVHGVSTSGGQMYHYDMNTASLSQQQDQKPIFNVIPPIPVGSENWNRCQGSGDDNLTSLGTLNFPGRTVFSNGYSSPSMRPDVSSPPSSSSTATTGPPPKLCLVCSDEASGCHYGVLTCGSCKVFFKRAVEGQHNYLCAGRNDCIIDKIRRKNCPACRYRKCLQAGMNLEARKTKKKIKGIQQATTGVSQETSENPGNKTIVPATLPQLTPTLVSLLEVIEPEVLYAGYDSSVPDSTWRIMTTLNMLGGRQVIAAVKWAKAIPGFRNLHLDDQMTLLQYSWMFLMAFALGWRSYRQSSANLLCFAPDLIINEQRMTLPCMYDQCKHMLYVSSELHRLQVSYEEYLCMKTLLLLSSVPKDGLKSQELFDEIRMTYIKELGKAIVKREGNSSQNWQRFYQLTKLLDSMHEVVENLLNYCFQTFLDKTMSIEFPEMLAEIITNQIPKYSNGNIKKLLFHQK
From the text: as §1

PDE4D2 (h) = target: T8, PDE4D2 (h) (Homo sapiens, UniProt Q08499); assay: In vitro CEREP profiling, PDE4D2 (h); assay type: biochemical; details: test compound concentration 10 uM; Enzyme and Cell-based assays
T8 construct: purchased Eurofins Cerep (SafetyScreen44), recognised from the panel format
T8 sequence (Q08499 303-809): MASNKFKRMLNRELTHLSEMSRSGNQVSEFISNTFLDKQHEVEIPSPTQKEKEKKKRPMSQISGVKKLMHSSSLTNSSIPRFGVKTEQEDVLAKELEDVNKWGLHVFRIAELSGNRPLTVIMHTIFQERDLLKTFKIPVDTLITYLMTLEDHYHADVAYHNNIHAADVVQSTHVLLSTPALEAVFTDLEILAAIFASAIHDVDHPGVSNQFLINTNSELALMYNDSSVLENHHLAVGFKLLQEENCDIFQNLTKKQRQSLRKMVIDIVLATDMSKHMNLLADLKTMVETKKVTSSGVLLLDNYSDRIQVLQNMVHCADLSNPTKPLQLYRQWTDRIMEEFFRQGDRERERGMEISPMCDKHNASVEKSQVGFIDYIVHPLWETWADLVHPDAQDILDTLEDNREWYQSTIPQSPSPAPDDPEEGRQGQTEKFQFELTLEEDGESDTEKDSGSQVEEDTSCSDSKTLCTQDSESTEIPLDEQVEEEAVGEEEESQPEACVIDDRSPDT
From the text: as §1

Lck kinase (h) = target: T9, Lck kinase (h) (Homo sapiens, UniProt P06239); assay: In vitro CEREP profiling, Lck kinase (h); assay type: biochemical; details: test compound concentration 10 uM; Enzyme and Cell-based assays
T9 construct: purchased Eurofins Cerep (SafetyScreen44), recognised from the panel format
T9 sequence (P06239 whole entry): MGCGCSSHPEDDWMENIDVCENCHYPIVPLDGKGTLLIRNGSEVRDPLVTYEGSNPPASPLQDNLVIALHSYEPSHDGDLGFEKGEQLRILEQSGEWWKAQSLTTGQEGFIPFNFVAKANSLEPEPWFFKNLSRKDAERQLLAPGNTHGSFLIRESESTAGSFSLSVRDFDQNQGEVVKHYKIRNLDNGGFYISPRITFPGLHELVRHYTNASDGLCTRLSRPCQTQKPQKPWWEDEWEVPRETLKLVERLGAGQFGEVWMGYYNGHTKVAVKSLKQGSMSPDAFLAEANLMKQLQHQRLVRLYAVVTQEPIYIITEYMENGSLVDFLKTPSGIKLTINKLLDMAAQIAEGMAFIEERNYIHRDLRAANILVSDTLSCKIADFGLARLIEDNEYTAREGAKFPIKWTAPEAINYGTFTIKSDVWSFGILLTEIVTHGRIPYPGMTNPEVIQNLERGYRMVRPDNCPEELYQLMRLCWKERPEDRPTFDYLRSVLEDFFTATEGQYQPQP
From the text: as §1

acetylcholinesterase (h) = target: T10, acetylcholinesterase (h) (Homo sapiens, UniProt P22303); assay: In vitro CEREP profiling, acetylcholinesterase (h); assay type: biochemical; details: test compound concentration 10 uM; Enzyme and Cell-based assays
T10 construct: purchased Eurofins Cerep (SafetyScreen44), recognised from the panel format
T10 sequence (P22303 32-614): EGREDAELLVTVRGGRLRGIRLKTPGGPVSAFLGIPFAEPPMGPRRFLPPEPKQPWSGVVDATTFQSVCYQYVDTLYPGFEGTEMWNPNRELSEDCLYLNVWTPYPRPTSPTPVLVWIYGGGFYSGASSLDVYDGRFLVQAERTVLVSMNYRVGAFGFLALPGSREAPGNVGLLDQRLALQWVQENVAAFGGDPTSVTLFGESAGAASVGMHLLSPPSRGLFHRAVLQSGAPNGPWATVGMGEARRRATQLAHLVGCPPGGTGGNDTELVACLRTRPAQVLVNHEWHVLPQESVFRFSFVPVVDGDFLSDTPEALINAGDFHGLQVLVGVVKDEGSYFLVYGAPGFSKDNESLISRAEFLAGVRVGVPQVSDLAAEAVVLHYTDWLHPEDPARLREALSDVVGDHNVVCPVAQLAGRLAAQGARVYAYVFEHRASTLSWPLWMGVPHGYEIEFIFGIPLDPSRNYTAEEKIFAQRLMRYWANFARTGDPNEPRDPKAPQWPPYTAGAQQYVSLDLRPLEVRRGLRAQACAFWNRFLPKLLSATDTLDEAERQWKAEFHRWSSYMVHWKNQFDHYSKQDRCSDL
From the text: as §1

delta (DOP) (h) = target: T11, delta (DOP) (h) (Homo sapiens, UniProt P41143); assay: In vitro CEREP profiling, delta (DOP) (h) (agonist radioligand); assay type: binding; details: test compound concentration 10 uM
T11 construct: purchased Eurofins Cerep (SafetyScreen44), recognised from the panel format
T11 sequence (P41143 whole entry): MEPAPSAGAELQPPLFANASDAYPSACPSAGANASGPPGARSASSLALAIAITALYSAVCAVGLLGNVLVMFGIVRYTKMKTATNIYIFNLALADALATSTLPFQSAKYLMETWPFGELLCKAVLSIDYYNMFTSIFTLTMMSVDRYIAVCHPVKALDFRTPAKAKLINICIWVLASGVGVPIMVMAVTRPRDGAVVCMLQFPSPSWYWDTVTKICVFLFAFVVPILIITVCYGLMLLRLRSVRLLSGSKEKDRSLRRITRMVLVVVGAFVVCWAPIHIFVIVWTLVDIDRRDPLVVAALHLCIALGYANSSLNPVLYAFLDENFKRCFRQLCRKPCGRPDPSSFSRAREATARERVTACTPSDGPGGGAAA
From the text: as §1

[2] = target: T12, Potassium Channel hERG (human) (Homo sapiens, UniProt Q12809); assay: In vitro CEREP profiling, Potassium Channel hERG (human)- [3H] Dofetilide; assay type: binding; details: test compound concentration 10 uM
T12 construct: purchased Eurofins Cerep (SafetyScreen44), recognised from the panel format
From the text: as §1

[3] = target: T13, norepinephrine transporter (h) (Homo sapiens, UniProt P23975); assay: In vitro CEREP profiling, norepinephrine transporter (h) (antagonist radioligand); assay type: binding; details: test compound concentration 10 uM
T13 construct: purchased Eurofins Cerep (SafetyScreen44), recognised from the panel format
T13 sequence (P23975 whole entry): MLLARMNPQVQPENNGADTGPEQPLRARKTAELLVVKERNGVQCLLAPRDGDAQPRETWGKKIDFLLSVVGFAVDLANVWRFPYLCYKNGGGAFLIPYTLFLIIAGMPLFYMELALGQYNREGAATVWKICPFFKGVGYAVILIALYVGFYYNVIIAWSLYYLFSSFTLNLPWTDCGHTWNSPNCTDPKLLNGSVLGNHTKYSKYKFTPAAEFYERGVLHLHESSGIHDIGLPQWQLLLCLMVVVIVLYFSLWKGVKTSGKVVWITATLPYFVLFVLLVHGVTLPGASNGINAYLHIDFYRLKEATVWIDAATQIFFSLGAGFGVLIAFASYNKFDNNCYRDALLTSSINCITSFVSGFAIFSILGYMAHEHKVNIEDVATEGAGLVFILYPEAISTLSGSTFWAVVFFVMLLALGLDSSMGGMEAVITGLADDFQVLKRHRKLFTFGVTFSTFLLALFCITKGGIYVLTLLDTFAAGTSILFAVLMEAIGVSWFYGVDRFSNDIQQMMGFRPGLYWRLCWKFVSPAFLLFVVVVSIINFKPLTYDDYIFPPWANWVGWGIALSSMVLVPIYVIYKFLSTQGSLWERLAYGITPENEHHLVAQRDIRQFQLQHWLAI
From the text: as §1

dopamine transporter (h) = target: T14, dopamine transporter (h) (Homo sapiens, UniProt Q01959); assay: In vitro CEREP profiling, dopamine transporter (h) (antagonist radioligand); assay type: binding; details: test compound concentration 10 uM
T14 construct: purchased Eurofins Cerep (SafetyScreen44), recognised from the panel format
From the text: as §1

MERS-CoV = assay: microbe, parasite or virus in culture; assay type: cell-based; details: Vero E6/TMPRSS2 MERS-CoV antiviral effect with P-gp inhibitor; for perc_max_measured: maximum measured response of dose series; for perc_min_measured: minimum measured response of dose series; for EC50: read-out: ec50; for EC90: read-out: ec90

Structure (SMILES)	clint [1]	t_half [1]	perc_inhibition: % inhibition of the binding of a ligand specific for each target, 5-HT transporter (h) (antagonist radioligand) (5-HT transporter (h))	perc_inhibition (% inhibition of the binding of a ligand specific for each target) (5-HT2A (h))	perc_inhibition: % inhibition of control enzyme activity, COX1(h) (COX1(h))	perc_inhibition (% inhibition of the binding of a ligand specific for each target) (H2 (h))	perc_inhibition (% inhibition of the binding of a ligand specific for each target) (5-HT2B (h))	CC50 (Vero E6/TMPRSS2)	cc10 (Vero E6/TMPRSS2)	perc_max_measured (Vero E6/TMPRSS2)	perc_min_measured (Vero E6/TMPRSS2)	perc_inhibition (% inhibition of the binding of a ligand specific for each target) (MAO-A)	perc_inhibition (% inhibition of the binding of a ligand specific for each target) (GR (h))	perc_inhibition: % inhibition of control enzyme activity, PDE4D2 (h) (PDE4D2 (h))	perc_inhibition: % inhibition of control enzyme activity, Lck kinase (h) (Lck kinase (h))	perc_inhibition: % inhibition of control enzyme activity, acetylcholinesterase (h) (acetylcholinesterase (h))	perc_inhibition (% inhibition of the binding of a ligand specific for each target) (delta (DOP) (h))	perc_inhibition (% inhibition of the binding of a ligand specific for each target) [2]	perc_inhibition (% inhibition of the binding of a ligand specific for each target) [3]	perc_inhibition (% inhibition of the binding of a ligand specific for each target) (dopamine transporter (h))	further results
CNCc1cc(-c2cc3c(N[C@@H](c4ccc5c(c4)S(=O)(=O)CCC5)C(C)C)ncnc3[nH]2)co1 [ASAP-0011176]	74.7 uL/min/1E6 cells	9.27 min	24%	29%	-6%	-3%	-11%	> 5 µM	> 5.0 µM	117.999%	102.841%	11%	21%	43%	68%	10%	53%	26%	39%	50%	perc_max_measured (MERS-CoV): 108.298% and 134.469%; perc_min_measured (MERS-CoV): 91.617% and 86.125%; EC50 (MERS-CoV): > 5 µM; EC90 (MERS-CoV): > 5 µM
CC(C)[C@H](Nc1ncnc2[nH]ccc12)c1ccc2c(c1)S(=O)(=O)CCC2 [ASAP-0008674]	567.0 uL/min/1E6 cells	1.22 min	0%	12%	85%	-6%	54%	> 5 µM	> 5.0 µM	135.379% and 119.601%	95.549% and 105.983%	7%	10%	36%	10%	12%	30%	20%	-3%	27%	perc_max_measured (MERS-CoV): 131.878% and 83.309% and 125.339%; EC90 (MERS-CoV): > 5 µM
CC(C)[C@H](Nc1ncnc2[nH]c(-c3cnn(C)c3C#N)cc12)c1ccc2c(n1)OCCO2 [ASAP-0010715]	91.6 uL/min/1E6 cells	7.57 min	4%	15%	-39%	-16%	18%	> 5 µM	> 5.0 µM	109.412%	72.414%	4%	11%	70%	20%	15%	58%	29%	9%	29%	perc_max_measured (MERS-CoV): 122.135% and 106.633%; perc_min_measured (MERS-CoV): 93.468% and 72.24%; EC50 (MERS-CoV): > 5 µM; EC90 (MERS-CoV): > 5 µM
CC(C)[C@@H](Nc1ncnc2[nH]c(-c3cnn(C)c3C#N)cc12)c1ccc2c(n1)OCCO2 [ASAP-0010716]	217.0 uL/min/1E6 cells	3.19 min	9%	14%	-34%	-11%	40%	> 5 µM	> 5.0 µM	116.627%	99.207%	8%	22%	44%	34%	22%	71%	32%	4%	30%	perc_max_measured (MERS-CoV): 144.33% and 125.176%; perc_min_measured (MERS-CoV): 55.976% and 101.272%; EC50 (MERS-CoV): > 5 µM; EC90 (MERS-CoV): > 5 µM
